Source: ChEMBL document CHEMBL5365467 (J Med Chem, 2023)

Columns and labels:
[1] = in vivo; settings: Sprague-Dawley, rat, po, 5 mg/kg
[2] = biological target: Protein cereblon/Androgen receptor (Homo sapiens, UniProt P10275+Q96SW2); assay: PROTAC activity at AR/CRBN in AR-positive human VCaP cells assessed as induction of androgen receptor degradation measured at 24 hrs; assay type: cell-based; settings: read-out: DC50
[3] = Metabolic stability in non human primate liver microsome assessed as parent compound remaining measured at 120 mins in presence of NADPH by LC-MS/MS analysis; assay type: ADME; settings: primates, liver microsomes, read-out: Stability
[4] = Metabolic stability in human plasma assessed as parent compound remaining measured after 120 mins by LC-MS/MS analysis; assay type: ADME, cell-free; settings: read-out: Stability
[5] = AUC (0 to t) in Beagle dog at 1 mg/kg, iv measured upto 24 hrs by LC-MS/MS analysis; assay type: ADME, organism-based, Canis lupus familiaris; parameters: dose 1 mg/kg, time < 24 hrs, route iv; settings: in vivo
[6] = AUC (0 to t) in ICR mouse at 2 mg/kg, iv measured upto 24 hrs by LC-MS/MS analysis; assay type: ADME, organism-based; parameters: dose 2 mg/kg, time < 24 hrs, route iv; settings: in vivo
[7] = Metabolic stability in dog liver microsome assessed as parent compound remaining measured at 120 mins in presence of NADPH by LC-MS/MS analysis; assay type: ADME, Canis lupus familiaris; settings: liver microsomes, read-out: Stability
[8] = Half life in ICR mouse at 2 mg/kg, iv measured upto 24 hrs by LC-MS/MS analysis; assay type: ADME, organism-based; settings: in vivo
[9] = biological target: Protein cereblon/Androgen receptor (Homo sapiens, UniProt P10275+Q96SW2, T878A); assay: PROTAC activity at AR T878A mutant/CRBN in human LNCaP cells assessed as induction of androgen receptor degradation measured at 24 hrs by Western blot analysis; assay type: cell-based
[10] = Cmax in Beagle dog at 10 mg/kg, po measured upto 24 hrs by LC-MS/MS analysis; assay type: ADME, organism-based, Canis lupus familiaris; parameters: time < 24 hrs, dose 10 mg/kg, route po; settings: in vivo
[11] = Cmax in non human primate at 2 mg/kg, po measured upto 24 hrs by LC-MS/MS analysis; assay type: ADME, organism-based; parameters: dose 2 mg/kg, time < 24 hrs, route po; settings: primates, in vivo
[12] = tested on: VCaP; assay: Growth inhibition in human VCaP cells
[13] = Half life in non human primate assessed as half life at 1 mg/kg, iv measured upto 24 hrs by LC-MS/MS analysis; assay type: ADME, organism-based; settings: primates, in vivo
[14] = Metabolic stability in human liver microsome assessed as parent compound remaining measured at 120 mins in presence of NADPH by LC-MS/MS analysis; assay type: ADME; settings: liver microsomes, read-out: Stability
[15] = in vivo; settings: Sprague-Dawley, rat, iv, 2 mg/kg
[16] = Half life in non human primate at 2 mg/kg, po measured upto 24 hrs by LC-MS/MS analysis; assay type: ADME, organism-based; settings: primates, in vivo
[17] = Metabolic stability in mouse plasma assessed as parent compound remaining measured after 120 mins by LC-MS/MS analysis; assay type: ADME, cell-free; settings: read-out: Stability
[18] = Metabolic stability in human liver microsome assessed as half life measured upto 45 mins in presence of NADPH by LC-MS/MS analysis; assay type: ADME; settings: liver microsomes
[19] = tested on: VCaP; assay: Antitumor activity against human VCaP cells xenografted in CB17-SCID mouse assessed as tumor growth inhibition at 40 mg/kg, po administered for 21 days; settings: 504 h, read-out: TGI
[20] = Cmax in ICR mouse at 5 mg/kg, po measured upto 24 hrs by LC-MS/MS analysis; assay type: ADME, organism-based; parameters: time < 24 hrs, dose 5 mg/kg, route po; settings: in vivo
[21] = AUC (0 to t) in Beagle dog at 10 mg/kg, po measured upto 24 hrs by LC-MS/MS analysis; assay type: ADME, organism-based, Canis lupus familiaris; parameters: time < 24 hrs, dose 10 mg/kg, route po; settings: in vivo
[22] = Metabolic stability in rat hepatocyte assessed as half life measured upto 120 mins by LC-MS/MS analysis; assay type: ADME, cell-based; settings: hepatocytes
[23] = Metabolic stability in rat liver microsome assessed as parent compound remaining measured at 120 mins in presence of NADPH by LC-MS/MS analysis; assay type: ADME; settings: liver microsomes, read-out: Stability

Protein cereblon/Androgen receptor (Homo sapiens, UniProt P10275+Q96SW2, T878A), sequence (P10275 whole entry T878A, stated change not applied): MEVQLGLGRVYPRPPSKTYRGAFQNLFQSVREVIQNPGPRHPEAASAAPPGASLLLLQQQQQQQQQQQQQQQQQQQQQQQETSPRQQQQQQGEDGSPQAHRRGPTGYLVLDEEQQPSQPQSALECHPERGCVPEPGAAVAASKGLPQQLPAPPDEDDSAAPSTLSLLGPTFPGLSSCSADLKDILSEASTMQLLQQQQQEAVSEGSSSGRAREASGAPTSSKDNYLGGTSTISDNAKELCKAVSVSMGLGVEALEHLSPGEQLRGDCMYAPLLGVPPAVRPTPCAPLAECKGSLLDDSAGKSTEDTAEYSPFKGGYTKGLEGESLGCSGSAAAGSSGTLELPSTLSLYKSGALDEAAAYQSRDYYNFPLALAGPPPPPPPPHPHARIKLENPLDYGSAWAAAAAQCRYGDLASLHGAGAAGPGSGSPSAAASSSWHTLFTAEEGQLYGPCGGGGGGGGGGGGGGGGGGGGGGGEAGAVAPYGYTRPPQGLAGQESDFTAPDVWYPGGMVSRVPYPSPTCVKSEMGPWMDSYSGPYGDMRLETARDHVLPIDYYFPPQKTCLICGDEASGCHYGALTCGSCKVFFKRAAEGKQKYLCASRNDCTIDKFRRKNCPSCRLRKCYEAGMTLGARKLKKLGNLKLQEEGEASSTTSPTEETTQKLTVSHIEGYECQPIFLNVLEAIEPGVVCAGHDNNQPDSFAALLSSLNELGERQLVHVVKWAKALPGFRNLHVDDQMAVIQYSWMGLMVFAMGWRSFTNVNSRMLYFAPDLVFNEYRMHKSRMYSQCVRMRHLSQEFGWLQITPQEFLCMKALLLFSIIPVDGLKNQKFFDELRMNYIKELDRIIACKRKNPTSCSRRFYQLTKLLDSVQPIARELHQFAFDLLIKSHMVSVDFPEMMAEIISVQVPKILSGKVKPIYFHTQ
Protein cereblon/Androgen receptor (Homo sapiens, UniProt P10275+Q96SW2, T878A), sequence (Q96SW2 whole entry, stated change not applied): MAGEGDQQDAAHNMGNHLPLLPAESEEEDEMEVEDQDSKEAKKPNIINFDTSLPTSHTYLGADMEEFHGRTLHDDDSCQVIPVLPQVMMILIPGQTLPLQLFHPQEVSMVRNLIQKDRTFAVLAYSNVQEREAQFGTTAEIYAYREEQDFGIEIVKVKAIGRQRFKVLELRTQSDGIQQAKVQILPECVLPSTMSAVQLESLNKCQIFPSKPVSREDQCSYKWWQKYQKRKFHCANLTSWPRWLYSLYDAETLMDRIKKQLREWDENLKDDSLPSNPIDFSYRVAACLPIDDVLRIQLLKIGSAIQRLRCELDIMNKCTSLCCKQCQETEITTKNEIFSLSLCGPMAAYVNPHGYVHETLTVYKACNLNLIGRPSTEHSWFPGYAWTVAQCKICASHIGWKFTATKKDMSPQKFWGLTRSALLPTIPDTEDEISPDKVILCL
Protein cereblon/Androgen receptor (Homo sapiens, UniProt P10275+Q96SW2), sequence (P10275 whole entry): as the sequence (P10275 whole entry T878A, stated change not applied) above, with A878T counted along it
Protein cereblon/Androgen receptor (Homo sapiens, UniProt P10275+Q96SW2), sequence (Q96SW2 whole entry): as the sequence (Q96SW2 whole entry, stated change not applied) above

## C[C@H]1CC2(CCN(c3ccc(C(=O)N4CCC(CN5Cc6cc7c(cc6C5)C(=O)N(C5CCC(=O)NC5=O)C7=O)CC4)cc3)CC2)CN1c1ccc(C#N)c(Cl)c1 (stereo partly drawn)
[1]
  Cmax at 24 h: 871 ng/mL
[2]
  DC50: 0.1 nM
[3]
  remaining at 2 h: 82%
[4]
  remaining at 2 h: 69%
[5]
  AUC(0-t) at 24 h: 4860 ng·h/mL
[6]
  AUC(0-t) at 24 h: 50500 ng·h/mL
[7]
  remaining at 2 h: 87%
[8]
  half-life: 4.3 h
[9]
  DC50: 1.1 nM
[10]
  Cmax: 1030 ng/mL
[11]
  Cmax: 1520 ng/mL
[12]
  IC50: 11.5 nM
[13]
  half-life: 10 h
[14]
  remaining at 2 h: 84%
[15]
  AUC(0-t) at 24 h: 5490 ng·h/mL
[16]
  half-life: 9.62 h
[17]
  remaining at 2 h: 62%
[18]
  half-life at […]: > 1 h
[19]
  inhibition in vivo at 40 mg/kg: 85%
[20]
  Cmax: 9120 ng/mL
[21]
  AUC(0-t) at 24 h: 15200 ng·h/mL
[22]
  half-life: > 2 h
[23]
  remaining at 2 h: 87%
